Test results as given in patent publication US9067905B2, “Sulphone compounds and methods of making and using same” (Zafgen, Inc., priority 2009, dated 2015).
Where a name gives a salt, the structure may show the parent alone.

molecular target: T1, recombinant human MetAP2 (Homo sapiens, UniProt P50579); experiment: Inhibition of recombinant human MetAP2 activity (Amplex red fluorescence assay); assay type: biochemical; settings: manganese Flag-MetAP2, 0.75 mM Methionine-Alanine-Serine substrate, 30 minutes at 25° C., pH 7.5, 1% DMSO
T1 construct: Flag; made in house; host or cells: Sf9 insect cells
T1 sequence (P50579 whole entry): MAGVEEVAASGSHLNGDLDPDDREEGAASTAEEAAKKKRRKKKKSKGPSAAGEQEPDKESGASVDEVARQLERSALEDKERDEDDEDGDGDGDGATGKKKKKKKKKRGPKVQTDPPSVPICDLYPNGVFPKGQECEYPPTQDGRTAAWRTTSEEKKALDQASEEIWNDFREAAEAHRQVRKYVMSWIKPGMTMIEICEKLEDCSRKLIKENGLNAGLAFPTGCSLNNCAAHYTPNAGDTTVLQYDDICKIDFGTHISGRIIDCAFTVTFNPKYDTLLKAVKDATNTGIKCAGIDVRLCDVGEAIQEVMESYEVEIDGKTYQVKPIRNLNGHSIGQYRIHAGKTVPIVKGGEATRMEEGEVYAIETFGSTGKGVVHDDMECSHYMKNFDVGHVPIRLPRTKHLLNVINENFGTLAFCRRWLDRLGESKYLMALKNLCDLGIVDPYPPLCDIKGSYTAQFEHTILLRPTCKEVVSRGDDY
Description: Compounds are tested for their capacity to inhibit recombinant human MetAP2 activity using the following assay.
Human recombinant Flag-MetAP2 expressed in Sf9 cells followed by affinity purification and EDTA treatment to remove endogenous active site cation is dialysed against MnCl2 to produce the manganese enzyme used in the assay. The assay is carried out for 30 minutes at 25° C. in 50 mM HEPES buffer containing 100 mM NaCl, pH 7.5 the presence of 0.75 mM Methionine-Alanine-Serine (MAS) substrate and 50 μg/ml amino acid oxidase using a dilution of purified MetAP2 giving approximately 50,000 RFU control activity. Cleavage of the substrate by MetAP2 and oxidation of free methionine by amino acid oxidase is detected and quantified using fluorescence generated by Amplex red (10-acetyl-3,7-dihydroxyphenoxazine) in combination with horseradish peroxidase which detects H2O2 released during the oxidation step. The fluorescent signal is detected using a multiwell fluorimeter. Compounds are diluted in DMSO prior to addition to assay buffer, the final DMSO concentration in the assay being 1%.
The IC50 is defined as the concentration at which a given compound achieves 50% inhibition of control. IC50 values are calculated using the XLfit software package (version 2.0.5).

First: COc1c(-c2ccoc2)ccc(CS(=O)(=O)N2CCCC2)c1C(=O)O [3-(Furan-3-yl)-2-methoxy-6-(pyrrolidin-1-ylsulphonylmethyl)-benzoic acid]
Second: COc1c(-c2ccoc2)ccc(CS(=O)(=O)N2CCCCC2)c1C(=O)O [3-(Furan-3-yl)-2-methoxy-6-(piperidine-1-ylsulphonylmethyl)benzoic acid]
The IC50 of the first is higher: 200 to 2000 nM for the first, under 200 nM for the second.

`CCc1ccc(CS(=O)(=O)c2ccc(Cl)cc2)c(C(=O)O)c1OC` [6-(4-Chlorobenzenesulphonylmethyl)-3-ethyl-2-methoxy-benzoic acid] and `CCc1ccc(CS(=O)(=O)c2ccccc2)c(C(=O)O)c1-c1ccn(C)n1` [6-Benzenesulphonylmethyl-3-ethyl-2-(1-methyl-1H-pyrazol-3-yl)-benzoic acid] cannot be ordered by IC50: over 2000 nM for the first, over 2000 nM for the second.

Compared with `CC#Cc1c(-c2ccoc2)ccc(CS(=O)(=O)c2ccccc2)c1C(=O)O` [6-(Benzenesulphonylmethyl)-3-(furan-3-yl)-2-(prop-1-yn-1-yl)benzoic acid], `N#CCNc1c(-c2ccoc2)ccc(CS(=O)(=O)c2ccccc2)c1C(=O)O` [6-(Benzenesulphonylmethyl)-2-(cyanomethylamino)-3-(furan-3-yl)benzoic acid] is lower in IC50: over 2000 nM for the first, under 200 nM for the second.

`CCN(CC)C/C=C\c1cc(F)ccc1S(=O)(=O)Cc1ccc(-c2ccoc2)c(OCC#N)c1C(=O)O` [(Z)-2-Cyanomethoxy-6-((2-(3-(Diethylamino)prop-1-enyl)-4-fluorobenzenesulfonyl)methyl)-3-(furan-3-yl)benzoic acid] and `CCN(CC)C/C=C\c1cc(F)ccc1S(=O)(=O)Cc1ccc(-c2ccoc2)c(OC)c1C(=O)O` [(Z)-6-((2-(3-(Diethylamino)prop-1-enyl)-4-fluorophenylsulfonyl)methyl)-3-(furan-3-yl)-2-methoxybenzoic acid] cannot be ordered by IC50: under 200 nM for the first, under 200 nM for the second.

`NCCOc1c(-c2ccoc2)ccc(CS(=O)(=O)c2ccc(F)cc2)c1C(=O)O` [2-(2-Aminoethoxy)-6-(4-fluorobenzenesulphonylmethyl)-3-(furan-3-yl)benzoic acid hydrochloride] and `NCCOc1c(-c2ccoc2)ccc(CS(=O)(=O)c2cccc(Cl)c2)c1C(=O)O` [2-(2-Aminoethoxy)-6-(3-chlorobenzenesulphonylmethyl)-3-(furan-3-yl)benzoic acid hydrochloride] cannot be ordered by IC50: under 200 nM for the first, under 200 nM for the second.

`COc1c(-c2ccoc2)ccc(CS(=O)(=O)C2CCCCC2)c1C(=O)O` [6-(Cyclohexanesulphonylmethyl)-3-(furan-3-yl)-2-methoxybenzoic acid] and `COc1c(-c2ccoc2)ccc(CS(=O)(=O)C2C3CCC2CC3)c1C(=O)O` (stereo not shown) [6-(Bicyclo[2.2.1]heptane-7-ylsulphonylmethyl)-3-(furan-3-yl)-2-methoxybenzoic acid] fall in the same range of IC50: 200 to 2000 nM for the first, 200 to 2000 nM for the second.

First: CCN(CC)CC1CCN1c1ccccc1S(=O)(=O)Cc1ccc(-c2ccoc2)c(OC)c1C(=O)O (stereo not shown) [6-[2-(2-Diethylaminomethylazetidin-1-yl)-benzenesulphonylmethyl]-3-(furan-3-yl)-2-methoxybenzoic acid]
Second: CCN(CC)CCNc1ccccc1S(=O)(=O)Cc1ccc(-c2ccoc2)c(OC)c1C(=O)O [6-[2-(2-Diethylaminoethylamino)benzenesulphonylmethyl]-3-(furan-3-yl)-2-methoxybenzoic acid]
The IC50 of the first is higher: over 2000 nM for the first, 200 to 2000 nM for the second.

Going from `O=C(O)c1c(CS(=O)(=O)c2ccccc2)ccc(-c2ccoc2)c1OCCO` [6-(Benzenesulphonylmethyl)-3-(furan-3-yl)-2-(2-hydroxyethoxy)benzoic acid] to `CNCCOc1c(-c2ccoc2)ccc(CS(=O)(=O)c2ccccc2)c1C(=O)O` [6-(Benzenesulphonylmethyl)-3-(furan-3-yl)-2-[2-(methylamino)-ethoxy]benzoic acid hydrochloride], the IC50 rises from under 200 nM to over 2000 nM. The first is the more potent here.

First: COc1c(-c2ccoc2)ccc(CS(=O)(=O)N2C3CCC2CC3)c1C(=O)O [6-(7-Azabicyclo[2.2.1]heptane-7-ylsulphonylmethyl)-3-(furan-3-yl)-2-methoxybenzoic acid]
Second: COc1c(-c2ccoc2)ccc(CS(=O)(=O)C2CC3CCC2CC3)c1C(=O)O (stereo not shown) [6-(Bicyclo[2.2.2]octane-2-ylsulphonylmethyl)-3-(furan-3-yl)-2-methoxybenzoic acid]
The IC50 of the first is lower: 200 to 2000 nM for the first, over 2000 nM for the second.

Compared with `COc1cccc(S(=O)(=O)Cc2ccc(-c3ccoc3)c(OC)c2C(=O)O)c1` [3-(Furan-3-yl)-6-(3-methoxybenzenesulphonylmethyl)-2-methoxybenzoic acid], `COc1c(-c2ccoc2)ccc(CS(=O)(=O)c2cccc(F)c2)c1C(=O)O` [6-(3-Fluorobenzenesulphonylmethyl)-3-(furan-3-yl)-2-methoxybenzoic acid] is lower in IC50: over 2000 nM for the first, under 200 nM for the second.

`COc1c(-c2ccoc2)ccc(CS(=O)(=O)c2ccccc2/C=C\CN2CCCCC2)c1C(=O)O` [(Z)-3-(Furan-3-yl)-2-methoxy-6-((2-(3-(piperidin-1-yl)prop-1-enyl)benzenesulfonyl)methyl)benzoic acid] and `CCN(CC)C/C=C\c1ccccc1S(=O)(=O)Cc1ccc(-c2ccoc2)c(OC)c1C(=O)O` [(Z)-6-((2-(3-(Diethylamino)prop-1-enyl)benzenesulfonyl)methyl)-3-(furan-3-yl)-2-methoxybenzoic acid] cannot be ordered by IC50: under 200 nM for the first, under 200 nM for the second.

First: COc1c(-c2cncs2)ccc(CS(=O)(=O)c2ccccc2)c1C(=O)O [6-(Benzenesulphonylmethyl)-2-methoxy-3-(thiazol-5-yl)benzoic acid]
Second: COc1c(-c2cc[nH]n2)ccc(CS(=O)(=O)c2ccccc2)c1C(=O)O [6-(Benzenesulphonylmethyl)-2-methoxy-3-(pyrazol-3-yl)benzoic acid]
The IC50 of the first is lower: 200 to 2000 nM for the first, over 2000 nM for the second. The first is the more potent here.

`O=C(O)c1cc(-c2ccoc2)ccc1CS(=O)(=O)c1ccccc1` [2-(Benzenesulphonylmethyl)-5-(furan-3-yl)benzoic acid] and `CCc1ccc(CS(=O)(=O)c2ccccc2)c(C(=O)O)c1` [2-(Benzenesulphonylmethyl)-5-ethylbenzoic acid] fall in the same range of IC50: 200 to 2000 nM for the first, 200 to 2000 nM for the second.

Going from `O=C(O)c1c(CS(=O)(=O)c2ccccc2)ccc(-c2ccoc2)c1OC1CNC1` [2-(Azetidin-3-yloxy)-6-(benzenesulphonylmethyl)-3-(furan-3-yl)-benzoic acid hydrochloride] to `N#CCOc1c(-c2ccoc2)ccc(CS(=O)(=O)c2ccccc2)c1C(=O)O` [6-(Benzenesulphonylmethyl)-2-(cyanomethoxy)-3-(furan-3-yl)benzoic acid], the IC50 falls from over 2000 nM to under 200 nM. The second is the more potent here.

`COc1c(-c2ccon2)ccc(CS(=O)(=O)c2ccccc2)c1C(=O)O` [6-(Benzenesulphonylmethyl)-3-(isoxazol-3-yl)-2-methoxybenzoic acid] and `COc1c(-c2ccccc2)ccc(CS(=O)(=O)c2ccccc2)c1C(=O)O` [6-(Benzenesulphonylmethyl)-2-methoxy-3-phenylbenzoic acid] cannot be ordered by IC50: over 2000 nM for the first, over 2000 nM for the second.

First: COc1c(-c2ccoc2)ccc(CS(=O)(=NC#N)c2ccccc2)c1C(=O)O (stereo not shown) [6-[(N-cyano-S-phenylsulphonimidoyl)methyl]-3-(furan-3-yl)-2-methoxybenzoic acid]
Second: COc1c(-c2ccoc2)ccc(CS(=N)(=O)c2ccccc2)c1C(=O)O (stereo not shown) [3-(Furan-3-yl)-2-methoxy-6-[(S-phenylsulphonimidoyl)methyl]benzoic acid]
The IC50 of the first is lower: under 200 nM for the first, 200 to 2000 nM for the second. The first is the more potent here.

First: COc1c(-c2ccoc2)ccc(CS(=O)(=O)c2ccccc2Cl)c1C(=O)O [6-(2-Chlorobenzenesulphonylmethyl)-3-(furan-3-yl)-2-methoxybenzoic acid]
Second: COc1c(-c2ccoc2)ccc(CS(=O)(=O)c2ccccc2O)c1C(=O)O [3-(Furan-3-yl)-6-(2-hydroxybenzenesulphonylmethyl)-2-methoxybenzoic acid]
The IC50 of the first is higher: 200 to 2000 nM for the first, under 200 nM for the second.

Compared with `CCc1ccc(C(C)S(=O)(=O)c2ccccc2)c(C(=O)O)c1OC` (stereo not shown) [6-(1-Benzenesulphonylethyl)-3-ethyl-2-methoxy-benzoic acid], `COc1cccc(CS(=O)(=O)c2ccccc2)c1C(=O)O` [2-(Benzenesulphonylmethyl)-6-methoxybenzoic acid] is higher in IC50: 200 to 2000 nM for the first, over 2000 nM for the second.

`COc1cc(CS(=O)(=O)c2ccccc2)c(C(=O)O)c(OC)c1-c1ccoc1` [6-(Benzenesulphonylmethyl)-3-(furan-3-yl)-2,4-dimethoxybenzoic acid] and `COc1ccccc1S(=O)(=O)Cc1ccc(-c2ccoc2)c(OC)c1C(=O)O` [3-(Furan-3-yl)-2-methoxy-6-(2-methoxybenzenesulphonylmethyl)-benzoic acid] fall in the same range of IC50: 200 to 2000 nM for the first, 200 to 2000 nM for the second.

First: COc1ccccc1S(=O)(=O)Cc1ccc(-c2ccoc2)c(OCCN)c1C(=O)O [2-(2-Aminoethoxy)-3-(furan-3-yl)-6-(2-methoxybenzenesulphonyl-methyl)benzoic acid hydrochloride]
Second: NCCNc1c(-c2ccoc2)ccc(CS(=O)(=O)c2ccccc2)c1C(=O)O [2-(2-Aminoethylamino)-6-benzenesulphonylmethyl-3-(furan-3-yl)-benzoic acid hydrochloride]
The IC50 of the first is lower: 200 to 2000 nM for the first, over 2000 nM for the second.

`COc1cccc2ccc(CS(=O)(=O)c3ccccc3)c(C(=O)O)c12` [2-(Benzenesulphonylmethyl)-8-methoxynaphthalene-1-carboxylic acid] and `COc1c(-n2cccn2)ccc(CS(=O)(=O)c2ccccc2)c1C(=O)O` [6-(Benzenesulphonylmethyl)-2-methoxy-3-(pyrazol-1-yl)benzoic acid] cannot be ordered by IC50: over 2000 nM for the first, over 2000 nM for the second.

`COc1c(-n2ccnc2)ccc(CS(=O)(=O)c2ccccc2)c1C(=O)O` [6-(Benzenesulphonylmethyl)-3-(imidazol-1-yl)-2-methoxybenzoic acid] showed an IC50 of over 2000 nM.
